{
  "source": "ChEMBL document CHEMBL4325871",
  "about": "(Eur J Med Chem, 2019)",
  "key": {"[1]": {"target": "T1, Serine/threonine-protein kinase Chk1 (Homo sapiens) (UniProt O14757)", "T1 sequence (whole entry)": "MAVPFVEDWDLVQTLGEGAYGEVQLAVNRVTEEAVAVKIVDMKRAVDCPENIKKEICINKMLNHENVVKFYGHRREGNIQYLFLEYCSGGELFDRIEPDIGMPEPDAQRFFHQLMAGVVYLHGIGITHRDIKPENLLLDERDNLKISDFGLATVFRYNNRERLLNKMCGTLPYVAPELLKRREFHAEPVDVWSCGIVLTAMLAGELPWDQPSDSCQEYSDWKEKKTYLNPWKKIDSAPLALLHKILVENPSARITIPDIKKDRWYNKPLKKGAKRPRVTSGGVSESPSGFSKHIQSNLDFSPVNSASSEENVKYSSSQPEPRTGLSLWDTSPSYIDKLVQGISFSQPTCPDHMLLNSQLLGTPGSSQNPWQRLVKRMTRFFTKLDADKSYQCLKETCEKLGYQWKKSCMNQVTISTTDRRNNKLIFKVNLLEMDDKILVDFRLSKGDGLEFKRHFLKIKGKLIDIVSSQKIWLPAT", "test": "Inhibition of CHK1 phosphorylation at S317 residue in human FOLFOX-resistant HCT116 cells after 24 hrs by Western blot analysis"}, "[2]": {"target": "T1, Serine/threonine-protein kinase Chk1 (Homo sapiens)", "test": "Inhibition of CHK1 phosphorylation at S317 residue in human FOLFOX-resistant HT-29 cells after 24 hrs by Western blot analysis"}, "[3]": {"target": "T1, Serine/threonine-protein kinase Chk1 (Homo sapiens)", "test": "Inhibition of CHK1 phosphorylation at S296 residue in human FOLFOX-resistant HT-29 cells after 24 hrs by Western blot analysis"}, "[4]": {"target": "T2, Serine/threonine-protein kinase A-Raf (Homo sapiens) (UniProt P10398)", "T2 sequence (whole entry)": "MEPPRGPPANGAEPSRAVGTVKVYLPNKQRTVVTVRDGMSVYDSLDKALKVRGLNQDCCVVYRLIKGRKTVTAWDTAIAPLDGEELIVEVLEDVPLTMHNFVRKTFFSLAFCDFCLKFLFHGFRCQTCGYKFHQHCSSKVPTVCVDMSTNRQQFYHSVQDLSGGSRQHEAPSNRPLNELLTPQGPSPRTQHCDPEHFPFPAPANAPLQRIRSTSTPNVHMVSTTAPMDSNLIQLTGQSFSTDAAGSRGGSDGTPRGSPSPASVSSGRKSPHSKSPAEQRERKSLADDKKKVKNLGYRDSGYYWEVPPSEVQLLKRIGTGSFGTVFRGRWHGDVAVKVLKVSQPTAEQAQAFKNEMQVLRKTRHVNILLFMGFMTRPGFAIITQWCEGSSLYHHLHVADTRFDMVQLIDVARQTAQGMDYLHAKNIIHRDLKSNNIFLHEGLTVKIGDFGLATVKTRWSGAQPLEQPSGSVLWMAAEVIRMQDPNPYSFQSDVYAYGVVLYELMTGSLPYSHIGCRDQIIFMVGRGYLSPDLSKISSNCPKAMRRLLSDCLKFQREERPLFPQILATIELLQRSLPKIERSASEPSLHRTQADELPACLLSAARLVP", "test": "Inhibition of human ARAF assessed as residual activity at 1 uM using MEK1 as substrate by [gamma-33P]-ATP assay relative to control"}, "[5]": {"target": "Tyrosine-protein kinase receptor UFO (Homo sapiens) (UniProt P30530)", "test": "Inhibition of human AXL assessed as residual activity at 1 uM using EAIYAAPFAKKK as substrate by [gamma-33P]-ATP assay relative to control"}, "[6]": {"target": "Calcium/calmodulin-dependent protein kinase type 1B (Homo sapiens) (UniProt Q6P2M8)", "sequence (Q6P2M8 whole entry)": "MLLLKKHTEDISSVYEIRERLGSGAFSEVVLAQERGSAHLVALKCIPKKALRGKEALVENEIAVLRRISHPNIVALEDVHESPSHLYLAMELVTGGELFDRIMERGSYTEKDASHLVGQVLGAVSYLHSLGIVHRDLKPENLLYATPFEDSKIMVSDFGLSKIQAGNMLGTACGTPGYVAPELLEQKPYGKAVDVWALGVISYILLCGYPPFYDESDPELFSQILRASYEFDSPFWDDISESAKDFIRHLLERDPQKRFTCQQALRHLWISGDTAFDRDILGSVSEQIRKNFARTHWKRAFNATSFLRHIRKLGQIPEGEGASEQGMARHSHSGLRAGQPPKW", "test": "Inhibition of human CAMK1B assessed as residual activity at 1 uM using KKALRRQETVDAL as substrate by [gamma-33P]-ATP assay relative to control"}, "[7]": {"target": "CDC7/DBF4 (Cell division cycle 7-related protein kinase/Activator of S phase kinase) (Homo sapiens) (UniProt Q9UBU7+O00311)", "test": "Inhibition of human CDC7/DBF4 assessed as residual activity at 1 uM using KTFCGTPEYLAPEVRREPRILSEEEQEMFRDFDYIADWC as substrate by [gamma-33P]-ATP assay relative to control", "format": "protein-complex assay"}, "[8]": {"target": "Cyclin-dependent kinase 14/Cyclin-Y (Homo sapiens) (UniProt O94921+Q8ND76)", "test": "Inhibition of human CDK14/cyclin-Y assessed as residual activity at 1 uM using RB protein as substrate by [gamma-33P]-ATP assay relative to control", "format": "protein-complex assay"}, "[9]": {"target": "Dual specificity protein kinase CLK4 (Homo sapiens) (UniProt Q9HAZ1)", "sequence (Q9HAZ1 whole entry, looked up)": "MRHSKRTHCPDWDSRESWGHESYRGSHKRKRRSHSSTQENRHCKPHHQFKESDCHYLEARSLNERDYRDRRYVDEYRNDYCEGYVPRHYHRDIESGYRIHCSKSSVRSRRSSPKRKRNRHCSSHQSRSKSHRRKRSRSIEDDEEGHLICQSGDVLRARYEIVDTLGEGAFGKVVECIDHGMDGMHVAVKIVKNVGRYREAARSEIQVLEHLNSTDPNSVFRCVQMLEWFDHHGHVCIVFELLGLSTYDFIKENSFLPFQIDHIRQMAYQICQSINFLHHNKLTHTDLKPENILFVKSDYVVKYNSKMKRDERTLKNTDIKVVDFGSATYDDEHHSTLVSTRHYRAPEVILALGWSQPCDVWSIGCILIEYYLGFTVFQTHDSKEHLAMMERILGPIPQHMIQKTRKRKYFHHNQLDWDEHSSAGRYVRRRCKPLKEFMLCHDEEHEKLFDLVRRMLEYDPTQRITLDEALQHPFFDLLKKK", "test": "Inhibition of human CLK4 assessed as residual activity at 1 uM using MBP as substrate by [gamma-33P]-ATP assay relative to control"}, "[10]": {"target": "Ephrin type-B receptor 3 (Homo sapiens) (UniProt P54753)", "sequence (P54753 whole entry)": "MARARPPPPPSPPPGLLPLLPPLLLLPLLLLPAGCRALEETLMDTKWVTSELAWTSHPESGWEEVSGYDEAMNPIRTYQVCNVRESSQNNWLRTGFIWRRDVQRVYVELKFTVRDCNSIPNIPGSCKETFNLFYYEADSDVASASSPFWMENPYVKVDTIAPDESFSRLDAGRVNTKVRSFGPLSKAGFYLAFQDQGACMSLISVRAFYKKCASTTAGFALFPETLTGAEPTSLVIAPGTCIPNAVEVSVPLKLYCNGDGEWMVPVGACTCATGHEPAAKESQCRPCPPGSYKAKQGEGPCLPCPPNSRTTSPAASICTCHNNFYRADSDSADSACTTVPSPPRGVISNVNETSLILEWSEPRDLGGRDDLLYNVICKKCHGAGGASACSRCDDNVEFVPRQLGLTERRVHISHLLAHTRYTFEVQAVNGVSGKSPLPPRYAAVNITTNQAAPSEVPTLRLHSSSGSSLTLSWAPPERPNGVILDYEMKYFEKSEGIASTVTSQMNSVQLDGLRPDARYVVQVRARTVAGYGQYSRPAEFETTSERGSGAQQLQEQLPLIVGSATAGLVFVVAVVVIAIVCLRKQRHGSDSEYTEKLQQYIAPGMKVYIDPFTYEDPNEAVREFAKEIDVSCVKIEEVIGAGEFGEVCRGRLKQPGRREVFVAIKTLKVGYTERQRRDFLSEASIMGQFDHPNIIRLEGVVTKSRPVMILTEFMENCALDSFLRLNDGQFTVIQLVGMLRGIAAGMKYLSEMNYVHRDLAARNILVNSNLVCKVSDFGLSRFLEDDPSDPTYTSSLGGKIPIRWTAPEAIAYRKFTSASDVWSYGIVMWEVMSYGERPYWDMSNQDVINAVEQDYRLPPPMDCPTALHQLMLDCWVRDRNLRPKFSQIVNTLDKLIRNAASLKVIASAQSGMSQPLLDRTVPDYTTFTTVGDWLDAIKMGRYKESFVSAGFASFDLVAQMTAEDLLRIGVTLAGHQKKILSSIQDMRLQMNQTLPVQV", "test": "Inhibition of human EPHB3 assessed as residual activity at 1 uM using poly[Glu:Tyr] (4:1) as substrate by [gamma-33P]-ATP assay relative to control"}, "[11]": {"target": "Interleukin-1 receptor-associated kinase 4 (Homo sapiens) (UniProt Q9NWZ3)", "test": "Inhibition of human IRAK4 assessed as residual activity at 1 uM using MBP as substrate by [gamma-33P]-ATP assay relative to control"}, "[12]": {"target": "Tyrosine-protein kinase JAK1 (Homo sapiens) (UniProt P23458)", "test": "Inhibition of human JAK1 assessed as residual activity at 1 uM using poly[Glu:Tyr] (4:1) as substrate by [gamma-33P]-ATP assay relative to control"}, "[13]": {"target": "Serine/threonine-protein kinase STK11 (Homo sapiens) (UniProt Q15831)", "sequence (Q15831 whole entry)": "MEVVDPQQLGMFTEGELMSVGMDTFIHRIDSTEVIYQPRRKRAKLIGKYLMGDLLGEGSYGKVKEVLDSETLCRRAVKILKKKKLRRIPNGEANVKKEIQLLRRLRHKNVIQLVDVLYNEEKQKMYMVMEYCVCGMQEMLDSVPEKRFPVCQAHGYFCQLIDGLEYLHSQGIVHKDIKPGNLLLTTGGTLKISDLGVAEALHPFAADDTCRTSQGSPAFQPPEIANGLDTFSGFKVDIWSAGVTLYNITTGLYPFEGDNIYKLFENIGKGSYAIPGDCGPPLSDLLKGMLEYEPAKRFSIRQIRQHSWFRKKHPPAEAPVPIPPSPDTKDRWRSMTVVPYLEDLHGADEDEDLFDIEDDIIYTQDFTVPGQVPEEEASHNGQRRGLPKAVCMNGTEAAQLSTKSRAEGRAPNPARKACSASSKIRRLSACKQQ", "test": "Inhibition of human LKB1 assessed as residual activity at 1 uM using LSNLYHQGKFLQTFCGSPLYRRR as substrate by [gamma-33P]-ATP assay relative to control"}, "[14]": {"target": "MAP/microtubule affinity-regulating kinase 4 (Homo sapiens) (UniProt Q96L34)", "test": "Inhibition of human MARK4 assessed as residual activity at 1 uM using KKKVSRSGLYRSPSMPENLNRPR as substrate by [gamma-33P]-ATP assay relative to control"}, "[15]": {"target": "Mitogen-activated protein kinase kinase kinase 3 (Homo sapiens) (UniProt Q99759)", "sequence (Q99759 whole entry)": "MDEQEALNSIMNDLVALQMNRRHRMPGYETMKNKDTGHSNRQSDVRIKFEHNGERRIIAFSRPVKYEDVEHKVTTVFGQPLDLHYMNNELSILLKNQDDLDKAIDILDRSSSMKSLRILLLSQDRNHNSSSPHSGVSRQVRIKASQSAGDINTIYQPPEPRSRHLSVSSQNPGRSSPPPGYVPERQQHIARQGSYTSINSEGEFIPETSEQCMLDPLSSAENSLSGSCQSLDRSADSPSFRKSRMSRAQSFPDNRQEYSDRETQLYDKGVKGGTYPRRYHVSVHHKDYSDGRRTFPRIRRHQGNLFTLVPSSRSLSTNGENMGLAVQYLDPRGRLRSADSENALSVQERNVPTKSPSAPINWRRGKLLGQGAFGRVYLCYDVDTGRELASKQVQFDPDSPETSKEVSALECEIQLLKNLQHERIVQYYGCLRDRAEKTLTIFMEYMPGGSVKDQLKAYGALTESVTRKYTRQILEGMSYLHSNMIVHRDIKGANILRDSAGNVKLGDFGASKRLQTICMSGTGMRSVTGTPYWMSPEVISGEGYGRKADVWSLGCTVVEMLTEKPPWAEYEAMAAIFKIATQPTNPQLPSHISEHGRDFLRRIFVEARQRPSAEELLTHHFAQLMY", "test": "Inhibition of human MEKK3 assessed as residual activity at 1 uM using MBP as substrate by [gamma-33P]-ATP assay relative to control"}, "[16]": {"target": "Serine/threonine-protein kinase 26 (Homo sapiens) (UniProt Q9P289)", "sequence (Q9P289 2-416 limits assumed)": "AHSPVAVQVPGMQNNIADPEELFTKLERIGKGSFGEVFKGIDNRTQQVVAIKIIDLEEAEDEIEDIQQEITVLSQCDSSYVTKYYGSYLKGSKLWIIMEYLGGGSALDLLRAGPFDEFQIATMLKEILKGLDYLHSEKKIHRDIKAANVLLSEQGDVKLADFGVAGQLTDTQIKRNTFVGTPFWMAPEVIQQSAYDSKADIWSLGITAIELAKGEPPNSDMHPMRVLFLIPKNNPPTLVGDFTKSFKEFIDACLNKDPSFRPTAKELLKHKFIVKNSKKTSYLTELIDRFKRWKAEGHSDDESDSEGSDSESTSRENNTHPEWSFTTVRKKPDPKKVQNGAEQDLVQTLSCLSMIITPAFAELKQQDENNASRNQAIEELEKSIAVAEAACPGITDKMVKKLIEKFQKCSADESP", "test": "Inhibition of human MST4 assessed as residual activity at 1 uM using MBP as substrate by [gamma-33P]-ATP assay relative to control"}, "[17]": {"target": "Serine/threonine-protein kinase Nek9 (Homo sapiens) (UniProt Q8TD19)", "sequence (Q8TD19 whole entry)": "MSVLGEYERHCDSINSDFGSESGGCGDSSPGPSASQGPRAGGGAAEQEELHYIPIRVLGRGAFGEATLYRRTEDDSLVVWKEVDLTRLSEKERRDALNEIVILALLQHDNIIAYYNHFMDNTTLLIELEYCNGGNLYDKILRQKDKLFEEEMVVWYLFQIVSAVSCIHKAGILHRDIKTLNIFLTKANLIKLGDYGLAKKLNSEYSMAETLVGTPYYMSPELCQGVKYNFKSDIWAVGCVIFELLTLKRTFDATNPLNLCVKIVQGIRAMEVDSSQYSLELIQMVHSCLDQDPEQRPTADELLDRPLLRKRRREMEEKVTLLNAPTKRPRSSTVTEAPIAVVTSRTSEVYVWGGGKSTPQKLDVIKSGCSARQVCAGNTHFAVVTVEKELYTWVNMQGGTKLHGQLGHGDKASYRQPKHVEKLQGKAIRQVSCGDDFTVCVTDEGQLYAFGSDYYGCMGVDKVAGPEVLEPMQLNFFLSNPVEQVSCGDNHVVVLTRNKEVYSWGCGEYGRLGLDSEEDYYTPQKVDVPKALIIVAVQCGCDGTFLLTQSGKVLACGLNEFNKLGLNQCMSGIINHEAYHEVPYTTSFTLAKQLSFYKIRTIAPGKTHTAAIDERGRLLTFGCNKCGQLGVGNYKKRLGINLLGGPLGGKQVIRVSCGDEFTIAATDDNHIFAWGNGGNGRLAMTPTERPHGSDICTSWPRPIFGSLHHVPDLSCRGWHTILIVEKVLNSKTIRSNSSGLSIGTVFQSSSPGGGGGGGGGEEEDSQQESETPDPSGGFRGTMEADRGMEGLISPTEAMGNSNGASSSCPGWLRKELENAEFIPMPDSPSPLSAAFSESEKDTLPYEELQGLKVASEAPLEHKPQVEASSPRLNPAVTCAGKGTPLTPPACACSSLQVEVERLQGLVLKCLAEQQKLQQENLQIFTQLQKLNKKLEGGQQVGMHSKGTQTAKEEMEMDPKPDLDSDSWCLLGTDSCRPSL", "test": "Inhibition of human NEK9 assessed as residual activity at 1 uM using casein as substrate by [gamma-33P]-ATP assay relative to control"}, "[18]": {"target": "Serine/threonine-protein kinase tousled-like 2 (Homo sapiens) (UniProt Q86UE8)", "sequence (Q86UE8 whole entry, looked up)": "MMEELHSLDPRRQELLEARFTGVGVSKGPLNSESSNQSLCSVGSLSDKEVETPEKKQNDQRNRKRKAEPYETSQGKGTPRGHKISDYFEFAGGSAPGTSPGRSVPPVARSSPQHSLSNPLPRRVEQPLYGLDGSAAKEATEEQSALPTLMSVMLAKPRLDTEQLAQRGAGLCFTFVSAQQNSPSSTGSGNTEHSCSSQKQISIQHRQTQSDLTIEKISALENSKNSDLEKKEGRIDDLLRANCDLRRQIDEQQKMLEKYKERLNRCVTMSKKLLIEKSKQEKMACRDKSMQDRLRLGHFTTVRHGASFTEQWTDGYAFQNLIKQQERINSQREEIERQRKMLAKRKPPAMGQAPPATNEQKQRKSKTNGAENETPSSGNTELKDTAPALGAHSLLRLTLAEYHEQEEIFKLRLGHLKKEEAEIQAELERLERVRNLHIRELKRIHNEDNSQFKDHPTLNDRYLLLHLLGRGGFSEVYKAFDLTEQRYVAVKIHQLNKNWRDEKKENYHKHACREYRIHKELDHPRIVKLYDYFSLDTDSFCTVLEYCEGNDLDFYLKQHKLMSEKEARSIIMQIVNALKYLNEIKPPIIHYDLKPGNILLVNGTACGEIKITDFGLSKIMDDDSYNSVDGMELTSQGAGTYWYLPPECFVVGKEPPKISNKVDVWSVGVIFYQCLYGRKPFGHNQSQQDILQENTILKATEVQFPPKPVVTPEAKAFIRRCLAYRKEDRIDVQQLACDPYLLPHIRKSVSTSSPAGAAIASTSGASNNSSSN", "test": "Inhibition of human TLK2 assessed as residual activity at 1 uM using casein as substrate by [gamma-33P]-ATP assay relative to control"}},
  "data": [
    {"smiles": "C(=C\\c1ccccc1)/C[N+]12CN3CN(CN(C3)C1)C2", "values": [
      {"measurement": "inhibition", "setting": "[1]", "value": "Dose-dependent effect"},
      {"measurement": "inhibition", "setting": "[2]", "value": "Dose-dependent effect"},
      {"measurement": "inhibition", "setting": "[3]", "value": "Dose-dependent effect"},
      {"measurement": "Activity", "setting": "[4]", "value": "92 to 97", "unit": "%"},
      {"measurement": "Activity", "setting": "[5]", "value": "94.8 to 94.9", "unit": "%"},
      {"measurement": "Activity", "setting": "[6]", "value": "80.5 to 87.2", "unit": "%"},
      {"measurement": "Activity", "setting": "[7]", "value": "94 to 94.4", "unit": "%"},
      {"measurement": "Activity", "setting": "[8]", "value": "95.2 to 96.5", "unit": "%"},
      {"measurement": "Activity", "setting": "[9]", "value": "93.1 to 93.2", "unit": "%"},
      {"measurement": "Activity", "setting": "[10]", "value": "94 to 96", "unit": "%"},
      {"measurement": "Activity", "setting": "[11]", "value": "92.1 to 96.8", "unit": "%"},
      {"measurement": "Activity", "setting": "[12]", "value": "92.4 to 92.6", "unit": "%"},
      {"measurement": "Activity", "setting": "[13]", "value": "89.2 to 92.2", "unit": "%"},
      {"measurement": "Activity", "setting": "[14]", "value": "93.8 to 96.3", "unit": "%"},
      {"measurement": "Activity", "setting": "[15]", "value": "117 to 119", "unit": "%"},
      {"measurement": "Activity", "setting": "[16]", "value": "90.7 to 92.2", "unit": "%"},
      {"measurement": "Activity", "setting": "[17]", "value": "93.4 to 95.1", "unit": "%"},
      {"measurement": "Activity", "setting": "[18]", "value": "87.9 to 91.1", "unit": "%"}
    ]},
    {"smiles": "ClC/C=C/C[N+]12CN3CN(CN(C3)C1)C2", "values": [
      {"measurement": "inhibition", "setting": "[1]", "value": "Dose-dependent effect"},
      {"measurement": "inhibition", "setting": "[2]", "value": "Dose-dependent effect"},
      {"measurement": "inhibition", "setting": "[3]", "value": "Dose-dependent effect"},
      {"measurement": "Activity", "setting": "[4]", "value": "93.8 to 95.3", "unit": "%"},
      {"measurement": "Activity", "setting": "[5]", "value": "95.7 to 96.5", "unit": "%"},
      {"measurement": "Activity", "setting": "[6]", "value": "87.8 to 88.7", "unit": "%"},
      {"measurement": "Activity", "setting": "[7]", "value": "93.8 to 95.8", "unit": "%"},
      {"measurement": "Activity", "setting": "[8]", "value": "96.5 to 97.3", "unit": "%"},
      {"measurement": "Activity", "setting": "[9]", "value": "86.9 to 91.8", "unit": "%"},
      {"measurement": "Activity", "setting": "[10]", "value": "93 to 93.5", "unit": "%"},
      {"measurement": "Activity", "setting": "[11]", "value": "91.5 to 92.7", "unit": "%"},
      {"measurement": "Activity", "setting": "[12]", "value": "92.7 to 94.5", "unit": "%"},
      {"measurement": "Activity", "setting": "[13]", "value": "92 to 94.8", "unit": "%"},
      {"measurement": "Activity", "setting": "[14]", "value": "90.2 to 95.2", "unit": "%"},
      {"measurement": "Activity", "setting": "[15]", "value": "118 to 123", "unit": "%"},
      {"measurement": "Activity", "setting": "[16]", "value": "83.3 to 87.1", "unit": "%"},
      {"measurement": "Activity", "setting": "[17]", "value": "93.8 to 95.2", "unit": "%"},
      {"measurement": "Activity", "setting": "[18]", "value": "91.2 to 91.8", "unit": "%"}
    ]}
  ]
}
